According to paper PMC8587999, “Assessment of the Activity of Decoquinate and Its Quinoline-O-Carbamate Derivatives against Toxoplasma gondii In Vitro and in Pregnant Mice Infected with T. gondii Oocysts” (Molecules, 2021):
Converted amounts (≈) assume the structure as drawn. “And” between values parts separate entries of the source, which are not always exact repeats. Equal entries are not always repeated.

How the values were obtained:
[1] = test system: T. gondii TgShSp1 oocysts; test: RMB060 efficacy assessment in pregnant CD1 mice orally infected with TgShSp1 oocysts; format: in vivo
Description: Eight-week-old CD1 mice, 29 females and 15 males, were used. After oestrus-synchronization and mating, females were randomly distributed to 3 experimental groups: RMB060, RMB060 + infection (n = 12); C+, corn oil + infection (n = 12); C−, only corn oil (n = 5). Infection was carried out at day 7 post-mating with 100 TgShSp1 oocysts suspended in 100 µL PBS, with the C−group receiving only PBS. Treatments, separation of pregnant and non-pregnant mice, and monitoring were performed as described in Section 4.7. All mice were euthanized 4 weeks p.p. by isoflurane/CO2. Blood and brain samples were collected. Total IgG was measured in T. gondii infected mice by ELISA to see whether drug treatment would have an impact on the humoral immune response.
(§1) Quantification of the cerebral parasite load in non-pregnant mice, dams and pups was carried out with an established real-time PCR method for the detection of T. gondii. The NucleoSpin DNA RapidLyze Kit (Macherey-Nagel, Oensingen, Switzerland) was used for DNA purification according to the standard protocol and DNA concentrations were quantified by the QuantiFluor double-stranded DNA (dsDNA) system (Promega, Madison, WI, USA). Quantitative real-time PCR was performed with the Light Cycler (Roche, Basel, Switzerland), and the parasite load was calculated by including a standard curve of DNA samples from 1000, 100, and 10 T. gondii tachyzoites per run.
(§2) Graph creation and statistical analysis was performed in GraphPad Prism version 5.0 (GraphPad Software, La Jolla, CA, USA). Cerebral parasite burdens were compared between groups by the non-parametric Kruskal–Wallis test, followed by Mann–Whitney U test. Pup mortality over time was depicted by plotting survival events at each time point in Kaplan–Meier graphs and survival curves were compared by the Log-rank (Mantel–Cox) test.

[2] = test system: liver stage of Plasmodium berghei malaria parasites; parameters: method as in doi:10.1038/s42004-018-0062-7; conditions: cited from earlier work
[3] = test system: T. gondii TgShSp1 oocysts; test: DCQ efficacy assessment in pregnant CD1 mice orally infected with TgShSp1 oocysts; format: in vivo
Description: Twenty-nine female and 15 male CD1 mice, all 8 weeks of age, were used. Oestrus-synchronization and mating was carried out as described under Section 4.6. Subsequently, females were distributed randomly to 3 experimental groups: DCQ, DCQ + infection (n = 12); C+, corn oil + infection (n = 12); C-, only corn oil (n = 5). Infection was performed with 100 TgShSp1 oocysts at day 7 post-mating by oral gavage; the C− group received PBS. The treatment with DCQ suspended in corn oil at 10 mg/kg/day for 5 days; that only with corn oil was initiated at 2 days post-infection. At day 18 post-mating, pregnant mice were distributed into single cages and non-pregnant mice were housed together with 3–4 animals per cage. Dams gave birth between day 20–22, and clinical status, litter size, neonatal and postnatal mortality were recorded daily. Four weeks post-partum (p.p.), all mice were euthanized in a chamber by isoflurane/CO2 inhalation. Blood and brain samples were collected. Total IgG was measured in T. gondii infected mice by ELISA [49].
as §1, §2

[4] = parameters: method as in https://www.drugs.com/pro/deccox.html; conditions: rats; ref https://www.drugs.com/pro/deccox.html; cited from earlier work
[5] = parameters: method as in PMID 32626086; conditions: cited from earlier work
Sarcocystis neurona = test system: Sarcocystis neurona; parameters: method as in PMID 23523012; conditions: cited from earlier work
T. gondii oocysts = test system: T. gondii oocysts; parameters: method as in PMID 8735260; conditions: treatment commencing 10 days prior to infection with T. gondii oocysts; cited from earlier work
[6] = CD1 mice, TgShSp1 oocysts, 10 mg/kg/day oral for 5 days, positive/total adult mice
[7] = brain PCR, surviving pups, 10 mg/kg/day oral for 5 days
[8] = brain PCR, 10 mg/kg/day oral for 5 days
[9] = dead pups/pups born, 10 mg/kg/day oral for 5 days, 10 mg/kg/day
[10] = real-time PCR, 4 weeks p.p., non-pregnant mice and dams
[11] = serum at end of experiment, RIPC, non-pregnant mice and dams

CCCCCCCCCCOc1cc2c(OC(=O)N3CCN(S(C)(=O)=O)C3=O)c(C(=O)OCC)cnc2cc1OCC [RMB060]
Vertical transmission ([1]; 10 mg/kg/day for 5 days): vertical transmission to pups could not be prevented
Postnatal Mortality ([1]; 10 mg/kg/day for 5 days, C+ group 9.2%): 3.8%
Neonatal Mortality ([1]; 10 mg/kg/day for 5 days, C+ group 23%, non-significant): 16.8%
Surviving pups PCR-positive for T. gondii in the brain ([1]; 10 mg/kg/day for 5 days, C+ group 89%): 62%
No. of Pups/No. of Dams ([1]; 10 mg/kg/day oral for 5 days): 125/10
Seropositive for T. gondii [1, 6]: 8/12
Survival curves of pups compared to the C+ group ([1]; Kaplan–Meier, Log-rank (Mantel-Cox) test): No statistically significant differences
Brain infection detected in adult mice (dams and non-pregnant mice) ([1]; PCR, 10 mg/kg/day for 5 days): eight out of 12
T. gondii Positive Pups [1, 7]: 62/100
T. gondii Positive Dams [1, 8]: 7/10
T. gondii Positive Non-Pregnant Mice [1, 8]: 1/2
Neonatal Mortality [1, 9]: 21 out of 125 and 21/125
Postnatal Mortality ([1]; dead/remaining pups, 10 mg/kg/day oral for 5 days): 4/104
Cerebral parasite burden compared to the C+ group [1, 10]: No statistically significant differences
T. gondii IgG antibody titers compared to the C+ group [1, 11]: no statistically significant differences
Activity against the liver stage of Plasmodium berghei [2]: highly active

CCCCCCCCCCOc1cc2c(O)c(C(=O)OCC)cnc2cc1OCC [DCQ, ethyl 6-decyloxy-7-ethoxy-4-oxo-1H-quinoline-3-carboxylate]
Vertical transmission ([3]; 10 mg/kg/day for 5 days): did not prevent vertical transmission
Neonatal pup mortality ([3]; 10 mg/kg/day for 5 days, C+ group 40%): 70%
No. of Pups/No. of Dams ([3]; 10 mg/kg/day oral for 5 days): 92/8
Seropositive for T. gondii [3, 6]: 11/12
Brain infection detected in adult mice (dams and non-pregnant mice) ([3]; PCR, 10 mg/kg/day for 5 days): 11 out of 12
T. gondii Positive Pups [3, 7]: 25/25
T. gondii Positive Dams [3, 8]: 8/8
T. gondii Positive Non-Pregnant Mice [3, 8]: 3/4
Neonatal Mortality [3, 9]: 64 out of 92 and 64/92
Postnatal Mortality ([3]; dead/remaining pups, 1-month follow-up, 10 mg/kg/day oral for 5 days, 10 mg/kg/day): 3 of the 28 and 3/28
Cerebral parasite burden compared to the C+ group [3, 10]: No statistically significant differences
T. gondii IgG antibody titers compared to the C+ group [3, 11]: no statistically significant differences
LD50 [4]: > 5000 mg/kg
aqueous solubility [5]: 0.06 µg/mL (≈ 0.144 µM)
Activity against S. neurona schizonts (Sarcocystis neurona; 10 day treatment at 240 nM): parasiticidal activity
IC50 (Sarcocystis neurona; read-out: IC50 values for S. neurona merozoites): 0.6 to 1.1 nM
Outcome of prophylactic treatment in ewes (T. gondii oocysts): decreased pathological changes in the placental tissue
